Results taken from patent US20160310619A1, “SCREENING METHODS FOR ACETYLCHOLINE RELATED BIOACTIVE MATERIALS USING INHERITED COLOR PREFERENCE OF FISH” (GENOMIC DESIGN BIOENGINEERING COMPANY, priority 2014, published 2016).

Assays:
zebrafish [1] = experiment: Color preference of zebrafish in blue/yellow color maze after alcohol; type: in vivo, zebrafish (Danio rerio); details: zebrafish 25 days after birth; alcohol 0.5%, 1%, 2% in egg water vs 0% comparison group; FIG. 7
Excerpt: A method for detecting bioactive materials using the innate color preference instinct of fish based on the color recognition and color preference results according to the visual recognition of zebrafish was developed. In order to identify whether a method for screening a bioactive material according to the present invention may effectively detect candidate materials, alcohol was used as an example of the bioactive material to identify whether the color preference of zebrafish is changed between before applied to zebrafish and after applied to the zebrafish. This utilizes the common sense that humans' recognition ability is changed depending on the blood alcohol concentration.
A specific experimental method was as follows. A straight line-shaped screening device (color maze) with a combination of blue and yellow was prepared, and 40 zebrafish, 25 days after birth, were used. Every 10 of the fish were put in each straight-line groove, egg water of 5 ml was used, and then, video-recording was performed for 30 minutes using a video recorder. As predicted, many of the zebrafish moved to blue that is a preferred color of zebrafish. […] The number of zebrafish in each color section was counted through the video recorded over five times in total.

zebrafish [2] = experiment: Screening for acetylcholine neurotransmission-related materials by innate color preference (blue/yellow color maze); type: in vivo, zebrafish (Danio rerio); details: acetylcholinesterase inhibitors vs egg water; five days old fish; FIG. 9(A)-(C)
Excerpt: For this experiment, a straight line-shaped screening device (color maze) was used as a screening device, and blue and yellow that most differ in color preference were used. Further, five days old young fish born from the same male and female were used in the channels of the device and divided into a comparison group and an experimental group in this experiment. The number of entities used in the comparison group and the experimental group was 10 per channel. The final volume of egg water used in each channel was fitted into 4 mL. Considering the direction for illumination and time of transmission of drug to nerves, video-recording was performed for 30 minutes, and then, sleeves were changed. Then, video-recording was resumed for 30 minutes. The number of entities in each of the sections with different colors was counted every two minutes and was processed statistically. As statistics, the significance of the comparison group and the experimental group was identified through the T-test (SPSS, USA).
For acetylcholine (Sigma), tacrine (Sigma), galantamine (Sigma), and caffeine (Sigma) as reagents administered to the experimental group, concentrates including acetylcholine of 1000 mM, tacrine of 20 mM, and galantamine of 10 mM were prepared using third distilled water. 10 entities, five days after fertilization, were put in the channel of each color maze, and egg water of 4 mL was used. […]

Structure (SMILES)	ability of distinguishing colors (number of zebrafish in each color section) (zebrafish [1])	change in color preference (number of young zebrafish in blue and yellow sections) (zebrafish [2])
CCO [alcohol]	as the alcohol concentration increases, the number of zebrafish that can distinguish colors decreases	–
Nc1c2c(nc3ccccc13)CCCC2 [tacrine, 1,2,3,4-tetrahydro-9-acridine amine]	–	moved to yellow that is their avoided color
